Laboratory results from publication PMC10740831, “Synthesis, Hydrolytic Stability and In Vivo Biological Study of Bioconjugates of the Tetrapeptides FELL Containing Pyrrole Moiety” (Biomedicines, 2023).
Entries after “also recorded” stand apart in the source; their conditions may differ. Peptide text beside a SMILES is read from it. * marks the point of attachment. X1 = CCOC(=O)c1c(C)[nH]c(C(=O)*)c1C; X2 = CCOC(=O)c1[nH]c(C)c(C(=O)*)c1C

Columns and labels:
[1] = tested on: opioid receptor; experiment: Paw pressure test after Naloxone pretreatment; format: in vivo, rat; conditions: Naloxone 1 mg/kg i.p. before bioconjugate 0.25 mg/kg i.p.; compared with no pretreatment; Figure 7
Procedure: (§1) Several groups of experimental animals were used. Each group contains 8–10 rats: • The control group receives 0.2 mL of saline intraperitoneally injected (i.p.); • Six experimental groups receiving one of the 6 tested substances (0.25 mg/kg, i.p.)—pyrrole acid A, pyrrole acid B, BB19A, BB19B, BB20A, and BB20B; • Four experimental groups receiving Naloxone (1 mg/kg, i.p.) before the administration of the newly synthesized bioconjugates BB19A, BB19B, BB20A, and BB20B; • Four experimental groups receiving AM251 (1.25 mg/kg, i.p.) before the administration of the newly synthesized bioconjugates BB19A, BB19B, BB20A, and BB20B.
(§2) Pretreatments with the non-selective opioid receptor antagonist Naloxone or the cannabinoid receptor antagonist AM251 were performed in order to estimate the types of receptors engaged in the effects observed—respectively, the opioid or the cannabinoid receptor [35].
(§3) An analgesiometer was used to measure the specific changes in the mechanical nociceptive thresholds (PPT) of experimental animals). A pressure was applied to the hind-paw and the value (g) required to elicit a nociceptive response (such as squeak or struggle) was taken as the mechanical nociceptive threshold. A cut-off value of 500 g was used to prevent damage of the paw. The targeted compounds were administrated and further nociception was evaluated each 10 min from the 10th min until the 50th min.
(§4) The results were statistically assessed by one-way analysis of variance followed by Newman-Keuls post hoc comparison test. One-Way ANOVA has been used to analyze the data. Values are represented in arbitrary units (AU) according to the scale, as mean ± S.E.M. Values of p < 0.05 were considered to indicate statistical significance.

[2] = tested on: cannabinoid receptor; experiment: Paw pressure test after AM251 pretreatment; format: in vivo, rat; conditions: AM251 1.25 mg/kg i.p. before bioconjugate 0.25 mg/kg i.p.; for time points with paradoxically higher analgesia after AM251 pretreatment than without pretreatment: Figure 7
Procedure: as §1, §2, §3, §4

[3] = tested on: male Wistar rats; experiment: Nociceptive Paw Pressure test (Randall–Selitto test), analgesic activity; format: in vivo, rat; conditions: 0.25 mg/kg i.p.; for course of analgesic activity over time (in words) / analgesic activity (paw pressure thresholds): Figure 6; for analgesic activity (paw pressure thresholds): male Wistar rats, 8–10 per group, measured every 10 min from 10th to 50th min; for highest analgesic activity reached, as percent of that of the parent acid: BB20A vs acid A, BB19B vs acid B
Procedure: The male Wistar rats (180–200 g) were used for all experiments. All animals were kept at around 22 °C and under normal conditions. The experimental procedures are realized in the interval 10:00 a.m. to 1:00 p.m. and are approved by the Research Ethics Commission of the Medical University-Sofia.
as §1, §3, §4

[4] = previously evaluated in vivo; cited from earlier work
Description: Parent compound FELL (Phe-Glu-Leu-Leu-OH) and four analogs of the tetrapeptide were previously evaluated in vivo for their analgesic activity.

[5] = tested on: white blood cell accumulation in the bronchoalveolar fluid; conditions: cited from earlier work
Description: In this context, tetrapeptide sequence H-FELL-OH is known from the literature as an anti-inflammatory agent.

For `CCOC(=O)c1c(C)[nH]c(C(=O)N[C@@H](Cc2ccccc2)C(=O)N[C@@H](CCC(=O)O)C(=O)N[C@@H](CC(C)C)C(=O)N[C@@H](CC(C)C)C(N)=O)c1C` [BB19A, A-Phe-Glu-Leu-Leu-NH2] (X1-FELL-NH2), the “analgesic activity after opioid receptor blockade (Naloxone pretreatment), in words” value [1] was “significant analgesia that even initially exceeded that of the substances without the pretreatment; also recorded: naloxone-independent in the first phase and naloxone-dependent in the second”, the “time points with paradoxically higher analgesia after AM251 pretreatment than without pretreatment” value [2] was 10th min and the “course of analgesic activity over time (in words)” value (from here on “course … over time (in words)”) ([3]; 10th to 50th min) was “biphasic activity”. For the same compound, the “analgesic activity on the 50th min compared with parent pyrrole acid” value ([3]; 50th min) was “exceeded the parent alpha acid” and the “analgesic activity (paw pressure thresholds)” value [3] was “exhibited analgesic activity”.

In the case of `CCOC(=O)c1c(C)[nH]c(C(=O)N[C@@H](Cc2ccccc2)C(=O)N[C@@H](CCC(=O)O)C(=O)N[C@@H](CC(C)C)C(=O)N[C@@H](CC(C)C)C(=O)O)c1C` [BB20A, A-Phe-Glu-Leu-Leu-OH] (X1-FELL-OH), the “analgesic activity after opioid receptor blockade (Naloxone pretreatment), in words” value [1] is reported as “Opioid receptors appear to be involved”, the “involvement of cannabinoid receptors in the analgesic effect (AM251 pretreatment), in words” value [2] is reported as “they “turn on” at a later stage—after the 20th minute” and the “time points with paradoxically higher analgesia after AM251 pretreatment than without pretreatment” value [2] is reported as 10th min. The “course … over time (in words)” value ([3]; 10th to 50th min) was “decreased to control values”, the “analgesic activity (paw pressure thresholds)” value [3] was “exhibited analgesic activity” and the “highest analgesic activity reached, as percent of that of the parent acid” value [3] was “more than 87%”.

For `CCOC(=O)c1[nH]c(C)c(C(=O)N[C@@H](Cc2ccccc2)C(=O)N[C@@H](CCC(=O)O)C(=O)N[C@@H](CC(C)C)C(=O)N[C@@H](CC(C)C)C(=O)O)c1C` [BB20B, B-Phe-Glu-Leu-Leu-OH] (X2-FELL-OH), the “analgesic activity after opioid receptor blockade (Naloxone pretreatment), in words” value [1] was “Opioid receptors appear to be involved”, the “involvement of cannabinoid receptors in the analgesic effect (AM251 pretreatment), in words” value [2] was “Cannabinoid receptors are also involved” and the “analgesic activity / PPTs on the 10th min compared with parent pyrrole acid” value [3] was “equivalent to the parent beta acid’s ones”. The “course … over time (in words)” value ([3]; 10th to 50th min) was “slowly decreased to control levels” and the “analgesic activity (paw pressure thresholds)” value [3] was “exhibited analgesic activity”.

In the case of `CCOC(=O)c1c(C)[nH]c(C(=O)O)c1C` [acid A, 4-(Ethoxycarbonyl)-3,5-dimethyl-1H-pyrrole-2-carboxylic Acid], the “duration of short-lasting analgesic activity” value [3] is reported as “about 10 min”, the “time window of short-lasting analgesic activity” value [3] is reported as “between the 10th and 20th min” and the “decrease of analgesic activity until the end of the estimated time” value ([3]; up to 50th min) is reported as 56%.

For `CCOC(=O)c1[nH]c(C)c(C(=O)O)c1C` [acid B, 5-(Ethoxycarbonyl)-2,4-dimethyl-1H-pyrrole-3-carboxylic Acid], the “duration of short-lasting analgesic activity” value [3] was “about 10 min”, the “time window of short-lasting analgesic activity” value [3] was “between the 20th and 30th min” and the “PPTs on the 50th min compared with controls” value ([3]; 50th min) was “almost equivalent to the controls’”.

In the case of “B-Phe-Glu-Leu-Leu-NH2 [BB19B, bioconjugate of pyrrole acid B and tetrapeptide FELL-NH2]”, the “analgesic activity after opioid receptor blockade (Naloxone pretreatment), in words” value [1] is reported as “significant analgesia that even initially exceeded that of the substances without the pretreatment”, the “time points with paradoxically higher analgesia after AM251 pretreatment than without pretreatment” value [2] is reported as 10th, 20th, and 30th min and the “analgesic activity / PPTs on the 10th min compared with parent pyrrole acid” value [3] is reported as “more significant than the parent beta acid”. The “variation of analgesic activity during the whole time of the experiment” value ([3]; 10th to 50th min) was “less than 7%”, the “course … over time (in words)” value ([3]; 10th to 50th min) was “sustained analgesic activity” and the “analgesic activity on the 50th min compared with parent pyrrole acid” value ([3]; 50th min) was “more significant than the parent beta acid”. For the same compound, the “analgesic activity (paw pressure thresholds)” value [3] was “exhibited analgesic activity” and the “highest analgesic activity reached, as percent of that of the parent acid” value [3] was 64.4%.

For “Phe-Glu-Leu-Leu-NH2 [C-terminal amide of the tetrapeptide FELL]”, the “analgesic activity over time (in words)” value [4] is given as “gradually increased analgesic activity with time”.

For “Phe-Glu-Leu-Leu-OH [H-FELL-OH, parent tetrapeptide known as an anti-inflammatory agent]”, the “reduction of the total number of white blood cell accumulation in the bronchoalveolar fluid in lungs” value [5] is listed as 51% and the “analgesic activity over time (in words)” value [4] is listed as “constantly increasing analgesic activity for the total time of the evaluation”.
